Experimental data from patent US6500853B1, “Inhibitors of phospholipase enzymes” (Genetics Institute, LLC, priority 1998, dated 2002).

Target: T1, cPLA2 (Homo sapiens, UniProt P47712)
T1 sequence (P47712 1-749): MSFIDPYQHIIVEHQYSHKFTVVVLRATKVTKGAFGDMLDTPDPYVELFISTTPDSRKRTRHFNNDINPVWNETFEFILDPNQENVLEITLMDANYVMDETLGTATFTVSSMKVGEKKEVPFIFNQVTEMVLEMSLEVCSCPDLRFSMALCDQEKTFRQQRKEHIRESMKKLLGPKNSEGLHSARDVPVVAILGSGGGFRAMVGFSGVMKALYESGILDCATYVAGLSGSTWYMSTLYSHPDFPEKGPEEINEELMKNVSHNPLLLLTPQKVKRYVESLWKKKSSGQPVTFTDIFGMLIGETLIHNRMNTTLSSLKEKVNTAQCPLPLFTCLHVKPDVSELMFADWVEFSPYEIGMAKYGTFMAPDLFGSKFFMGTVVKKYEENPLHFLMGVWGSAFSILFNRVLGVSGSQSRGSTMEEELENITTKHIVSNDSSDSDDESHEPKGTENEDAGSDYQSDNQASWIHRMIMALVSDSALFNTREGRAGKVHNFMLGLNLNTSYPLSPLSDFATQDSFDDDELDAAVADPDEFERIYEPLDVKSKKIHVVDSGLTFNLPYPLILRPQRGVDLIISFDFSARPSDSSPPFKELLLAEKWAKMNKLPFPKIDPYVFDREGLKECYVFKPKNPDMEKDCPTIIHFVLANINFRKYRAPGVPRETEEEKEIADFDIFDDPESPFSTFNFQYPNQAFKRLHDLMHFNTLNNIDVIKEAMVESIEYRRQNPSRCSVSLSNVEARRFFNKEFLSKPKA
Assay: Coumarin Assay (cPLA2 inhibition)
Assay type: biochemical
Conditions: for inhibition at 0.4 µM: read-out: PERCENT INHIBITION @; for inhibition at 2.5 µM: Conc 2.5 uM; for inhibition at 3 µM: Conc 3 uM; for inhibition at 3.3 µM: Conc 3.3 uM
Outline: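 Percent inhibition at the stated concentration, from the rate of 460 nm emission rise (360 nm excitation) per minute. Reaction started by adding 4 μg enzyme to compound and 60 μM 7-hydroxycoumarinyl 6-heptenoate in Hepes buffer pH 7.5 with 1 mM EDTA.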

COc1cc(C(=O)O)ccc1Cc1cn(C(c2ccccc2)c2ccc(N)cc2)c2cc(Cl)ccc12 (stereo not drawn) [Example 132, ′4-({1-[(4-aminophenyl)(phenyl)methyl]-6-chloro-1H-indol-3-yl}methyl)-3-methoxybenzoic acid]
PERCENT INHIBITION @ (CONCENTRATION 0.4 micromolar): 50%

COc1ccc(C(c2ccccc2)n2cc(Cc3ccc(C(=O)O)cc3OC)c3ccc(Cl)cc32)cc1 (stereo not drawn) [Example 133, ′4-({6-chloro-1-[(4-methoxyphenyl)(phenyl)methyl]-1H-indol-3-yl}methyl)-3-methoxybenzoic acid]
PERCENT INHIBITION @ (CONCENTRATION 0.3 micromolar): 50%

COc1ccc(C(c2ccc(OC)cc2)n2cc(Cc3ccc(C(=O)O)cc3OC)c3ccc(Cl)cc32)cc1 [Example 134, ′4-({1-[bis(4-methoxyphenyl)methyl]-6-chloro-1H-indol-3-yl}methyl)-3-methoxybenzoic acid]
PERCENT INHIBITION @ (CONCENTRATION 0.8 micromolar): 50%

COc1cc(C(=O)O)ccc1Cc1cn(C(c2ccccc2)c2ccccc2N2CCOCC2)c2cc(Cl)ccc12 (stereo not drawn) [Example 135, ′4-({6-chloro-1-[(2-morpholinophenyl)(phenyl)methyl]-1H-indol-3-yl}methyl)-3-methoxybenzoic acid]
PERCENT INHIBITION @ (CONCENTRATION 0.7 micromolar): 50%

COc1ncc(C(c2ccccc2)n2cc(Cc3ccc(C(=O)O)cc3OC)c3ccc(Cl)cc32)c(OC)n1 (stereo not drawn) [Example 136, 4-({6-chloro-1-[(2,4-dimethoxy-5-pyrimidinyl)(phenyl)methyl]-1H-indol-3-yl}methyl)-3-methoxybenzoic acid]
inhibition at 0.4 µM (CONCENTRATION 0.4 micromolar): 50%

COc1cc(C(=O)O)ccc1Cc1cn(C(c2ccccc2)c2ccccc2)c2cc(Cl)ccc12 [Example 137, ′4-[(1-benzhydryl-6-chloro-1H-indol-3-yl)methyl]-3-methoxybenzoic acid]
PERCENT INHIBITION @ (CONCENTRATION 0.8 micromolar): 50%

COc1cc(C(=O)NCC(=O)O)ccc1Cc1cn(C(c2ccccc2)c2ccccc2)c2cc(Cl)ccc12 [Example 138, 2-({4-[(1-benzhydryl-6-chloro-1H-indol-3-yl)methyl]-3-methoxybenzoyl}amino)acetic acid]
inhibition at 0.4 µM (CONCENTRATION 0.4 micromolar): 50%

Cc1c(CCS(=O)(=O)c2ccc(C(=O)O)cc2)c2cc(F)ccc2n1C(c1ccccc1)c1ccccc1 [Example 139, 4-{[2-(1-benzhydryl-5-fluoro-2-methyl-1H-indol-3-yl)ethyl]sulfonyl}benzoic acid]
inhibition at 1.6 µM (Conc 1.6 uM, read-out: % Inhibition): 50%

Cc1c(CCS(=O)(=O)c2ccc(C(=O)O)cc2)c2ccc(Cl)cc2n1C(c1ccccc1)c1ccccc1 [Example 140, 4-{[2-(1-benzhydryl-6-chloro-2-methyl-1H-indol-3-yl)ethyl]sulfonyl}benzoic acid]
inhibition at 2.5 µM (read-out: % Inhibition): 50%

Cc1c(CCS(=O)(=O)c2ccc(C(=O)O)cc2)c2c(Cl)c(Cl)ccc2n1C(c1ccccc1)c1ccccc1 [Example 141, 4-{[2-(1-benzhydryl-4,5-dichloro-2-methyl-1H-indol-3-yl)ethyl]sulfonyl}benzoic acid]
inhibition at 1.4 µM (Conc 1.4 uM, read-out: % Inhibition): 50%

Cc1c(CCS(=O)(=O)c2ccc(C(=O)O)cc2)c2cc(Cl)c(Cl)cc2n1C(c1ccccc1)c1ccccc1 [Example 142]
% Inhibition (Conc 1.4 uM): 50%

Cc1c(CCS(=O)(=O)c2ccc(C(=O)O)cc2)c2ccccc2n1C(c1ccccc1)c1ccccc1 [Example 143, 4-{[2-(1-benzhydryl-2-methyl-1H-indol-3-yl)ethyl]sulfonyl}benzoic acid]
inhibition at 3 µM (read-out: % Inhibition): 50%

COc1ccc2c(c1)c(CCS(=O)(=O)c1ccc(C(=O)O)cc1)c(C)n2C(c1ccccc1)c1ccccc1 [Example 144, 4-{[2-(1-benzhydryl-5-methoxy-2-methyl-1H-indol-3-yl)ethyl]sulfonyl}benzoic acid]
inhibition at 12 µM (Conc 12 uM, read-out: % Inhibition): 50%

Cc1c(CCOc2ccc(C(=O)O)cc2)c2cc(Br)ccc2n1C(c1ccccc1)c1ccccc1 [Example 145, 4-[2-(1-benzhydryl-5-bromo-2-methyl-1H-indol-3-yl)ethoxy]benzoic acid]
inhibition at 2.6 µM (Conc 2.6 uM): 50%

Cc1c(CCSc2ccc(C(=O)O)cc2)c2cc(Cl)ccc2n1C(c1ccccc1)c1ccccc1 [Example 146, 4-{[2-(1-benzhydryl-5-chloro-2-methyl-1H-indol-3-yl)ethyl]sulfany}benzoic acid]
% Inhibition (Conc 1.6 uM): 50%

Cc1c(CCS(=O)(=O)c2ccc(C(=O)O)cc2)c2cc(Cl)ccc2n1C(c1ccccc1)c1ccccc1 [Example 147, 4-{[2-(1-benzhydryl-5-chloro-2-methyl-1H-indol-3-yl)ethyl]sulfonyl}benzoic acid]
inhibition at 2.4 µM (Conc 2.4 uM, read-out: % Inhibition): 50%

Cc1c(CC[S+]([O-])c2ccc(C(=O)O)cc2)c2cc(Cl)ccc2n1C(c1ccccc1)c1ccccc1 (stereo not drawn) [Example 148, 4-{[2-(1-benzhydryl-5-chloro-2-methyl-1H-indol-3-yl)ethyl]sulfinyl}benzoic acid]
inhibition at 2.8 µM (Conc 2.8 uM): 50%

Cc1c(CCOc2ccc(C(=O)O)cc2)c2cc(Cl)ccc2n1C(c1ccccc1)c1ccccc1 [Example 149, 4-[2-(1-benzhydryl-5-chloro-2-methyl-1H-indol-3-yl)ethoxy]benzoic acid]
inhibition at 2.5 µM (read-out: % Inhibition): 50%

O=Cc1c(CCOc2ccc(C(=O)O)cc2)c2cc(Cl)ccc2n1C(c1ccccc1)c1ccccc1 [Example 150, 4-[2-(1-benzhydryl-5-chloro-2-formyl-1H-indol-3-yl)ethoxy]benzoic acid]
inhibition at 2.5 µM (read-out: % Inhibition): 50%

O=C(O)c1ccc(OCCc2c(CO)n(C(c3ccccc3)c3ccccc3)c3ccc(Cl)cc23)cc1 [Example 151, 4-{2-[1-benzhydryl-5-chloro-2-(hydroxymethyl)-1H-indol-3-yl]ethoxy}benzoic acid]
inhibition at 3.3 µM: 50%

COCc1c(CCOc2ccc(C(=O)O)cc2)c2cc(Cl)ccc2n1C(c1ccccc1)c1ccccc1 [Example 152, 4-{2-[1-benzhydryl-5-chloro-2-(methoxymethyl)-1H-indol-3-yl]ethoxy}benzoic acid]
inhibition at 3.3 µM: 50%

O=C(O)c1ccc(OCCc2c(CS(=O)(=O)c3ccccc3)n(C(c3ccccc3)c3ccccc3)c3ccc(Cl)cc23)cc1 [Example 153, 4-(2-{1-benzhydryl-5-chloro-2-[(phenylsulfonyl)methyl]-1H-indol-3-yl}ethoxy)benzoic acid]
inhibition at 3 µM (read-out: % Inhibition): 50%

CS(=O)(=O)Cc1c(CCOc2ccc(C(=O)O)cc2)c2cc(Cl)ccc2n1C(c1ccccc1)c1ccccc1 [Example 154, 4-(2-{1-benzhydryl-5-chloro-2-[(methylsulfonyl)methyl]-1H-indol-3-yl}ethoxy)benzoic acid]
inhibition at 5.5 µM (Conc 5.5 uM, read-out: % Inhibition): 50%

O=C(O)c1ccc(OCCc2c(COCc3ccccc3[N+](=O)[O-])n(C(c3ccccc3)c3ccccc3)c3ccc(Cl)cc23)cc1 [Example 155, 4-[2-(1-benzhydryl-5-chloro-2-{[(2-nitrobenzyl)oxy]methyl}-1H-indol-3-yl)ethoxy]benzoic acid]
inhibition at 2.2 µM (Conc 2.2 uM, read-out: % Inhibition): 50%

O=C(O)c1ccc(OCCc2c(COCc3c(F)cccc3F)n(C(c3ccccc3)c3ccccc3)c3ccc(Cl)cc23)cc1 [Example 156, 4-[2-(1-benzhydryl-5-chloro-2-{[(2,6-difluorobenzyl)oxy]methyl}-1H-indol-3-yl)ethoxy]benzoic acid]
inhibition at 1 µM (Conc 1 uM, read-out: % Inhibition): 50%

O=C(O)c1ccc(S(=O)(=O)CCc2c(CO)n(C(c3ccccc3)c3ccccc3)c3ccc(Cl)cc23)cc1 [Example 157, 4-({2-[1-benzhydryl-5-chloro-2-(hydroxymethyl)-1H-indol-3-yl]ethyl}sulfonyl)benzoic acid]
inhibition at 3.8 µM (Conc 3.8 uM, read-out: % Inhibition): 50%

O=C(O)c1ccc(OCCc2c(COCc3ccccn3)n(C(c3ccccc3)c3ccccc3)c3ccc(Cl)cc23)cc1 [Example 158, 4-(2-{1-benzhydryl-5-chloro-2-[(2-pyridinylmethoxy)methyl]-1H-indol-3-yl}ethoxy)benzoic acid]
inhibition at 1.7 µM (Conc 1.7 uM): 50%

O=C(O)c1ccc(OCCc2c(COCc3ccncc3)n(C(c3ccccc3)c3ccccc3)c3ccc(Cl)cc23)cc1 [Example 159, 4-(2-{1-benzhydryl-5-chloro-2-[(4-pyridinylmethoxy)methyl]-1H-indol-3-yl}ethoxy)benzoic acid]
inhibition at 4.2 µM (Conc 4.2 uM, read-out: % Inhibition): 50%

O=C(O)c1ccc(OCCc2c(COCc3ccccc3)n(C(c3ccccc3)c3ccccc3)c3ccc(Cl)cc23)cc1 [Example 160, 4-(2-{1-benzhydryl-2-[(benzyloxy)methyl]-5-chloro-1H-indol-3-yl}ethoxy)benzoic acid]
inhibition at 2 µM (Conc 2 uM, read-out: % Inhibition): 50%

O=C(O)c1ccc(OCCc2c(COCc3ccc(F)cc3)n(C(c3ccccc3)c3ccccc3)c3ccc(Cl)cc23)cc1 [Example 161, 4-[2-(1-benzhydryl-5-chloro-2-{[(4-fluorobenzyl)oxy]methyl}-1H-indol-3-yl)ethoxy]benzoic acid]
inhibition at 1.8 µM (Conc 1.8 uM, read-out: % Inhibition): 50%
